# Patent US9204653B2, “5-fluoro pyrimidine derivatives” (DOW AGROSCIENCES LLC, priority 2008, dated 2015)
# Read-outs that look alike come from different tables or passages of the source.
# Experiments:
# [1] = test system: Mycosphaerella graminicola; Anamorph: Septoria tritici; Bayer Code SEPTTR; experiment: Leaf blotch of wheat, foliar fungicide treatment, one day protectant (1DP) or three day curative (3DC); type: in vivo, Septoria tritici on wheat plants (variety Yuma); settings: Zymoseptoria tritici
# [2] = test system: Venturia inaequalis; Bayer Code VENTIN; experiment: Apple scab; type: in vivo; settings: 24 h, % disease control rating, one day protectant; for pest or weed control at 25 ppm: read-out: VENTIN 1 DP 25 ppm; for pest or weed control at 75 ppm: read-out: VENTIN 1 DP 75 ppm
# [3] = test system: Cercospora beticola; Bayer Code CERCBE; experiment: Leaf spot of sugar beets; type: in vivo, Cercospora beticola on sugar beets (variety HH-88); settings: 24 h, % disease control rating, one day protectant; for pest or weed control at 25 ppm: read-out: CERCBE 1 DP 25 ppm; for pest or weed control at 75 ppm: read-out: CERCBE 1 DP 75 ppm
# [4] = 24 h, one day protectant (1DP), percent disease control rating, read-out: SETTTR 1DP 25 ppm
# [5] = 24 h, one day protectant (1DP), percent disease control rating, read-out: SEPTTR 1DP 100 ppm
# [6] = 72 h, three day curative (3DC), percent disease control rating, read-out: SEPTTR 3DC 25 ppm
# [7] = 72 h, three day curative (3DC), percent disease control rating, read-out: SEPTTR 3DC 100 ppm
# [8] = 24 h, one day protectant (1DP), rating of percent disease control, read-out: SETTTR 1DP 25 ppm
# [9] = 24 h, one day protectant (1DP), rating of percent disease control, read-out: SEPTTR 1DP 100 ppm
# [10] = 72 h, three day curative (3DC), rating of percent disease control, read-out: SEPTTR 3DC 25 ppm
# [11] = 72 h, three day curative (3DC), rating of percent disease control, read-out: SEPTTR 3DC 100 ppm
SMILES,"pest or weed control at 25 ppm ([1]; 24 h, one day protectant, rating of percent disease control, read-out: SETTTR 1DP 25 ppm)","pest or weed control at 100 ppm ([1]; 24 h, one day protectant, rating of percent disease control, read-out: SEPTTR 1DP 100 ppm)",pest or weed control at 25 ppm [2],pest or weed control at 75 ppm [2],pest or weed control at 25 ppm [3],pest or weed control at 75 ppm [3],"pest or weed control at 25 ppm [1, 4]","pest or weed control at 100 ppm [1, 5]","pest or weed control at 25 ppm [1, 6]","pest or weed control at 100 ppm [1, 7]","pest or weed control at 25 ppm [1, 8]","pest or weed control at 100 ppm [1, 9]","pest or weed control at 25 ppm [1, 10]","pest or weed control at 100 ppm [1, 11]"
Nc1nc(OCCSc2ccc(Cl)cc2)ncc1F [Compound 719],0 to 25%,51 to 75%,51 to 75%,51 to 75%,0 to 25%,26 to 50%,,,,,,,,
"C/C(=N\Oc1ncc(F)c(N)n1)c1ccccc1 [Compound 4, 1-Phenyl-ethanone-O-(4-amino-5-fluoropyrimidin-2-yl)oxime]",,,76 to 100%,76 to 100%,76 to 100%,76 to 100%,76 to 100%,76 to 100%,76 to 100%,76 to 100%,,,,
COc1c(C)cnc(COc2ncc(F)c(N)n2)c1C [Compound 189],,,51 to 75%,51 to 75%,26 to 50%,0 to 25%,,,,,51 to 75%,76 to 100%,51 to 75%,76 to 100%
CS(=O)(=O)c1ccc(COc2ncc(F)c(N)n2)cc1 [Compound 207],,,0 to 25%,26 to 50%,0 to 25%,0 to 25%,,,,,0 to 25%,26 to 50%,0 to 25%,0 to 25%
Fc1ccccc1CNC(=S)Nc1nc(OCc2cccs2)ncc1F [Compound 169],,,51 to 75%,26 to 50%,0 to 25%,0 to 25%,51 to 75%,76 to 100%,0 to 25%,0 to 25%,,,,
CS(=O)(=O)Oc1ncc(F)c(N)n1 [Compound 337],,,51 to 75%,76 to 100%,51 to 75%,76 to 100%,,,,,26 to 50%,76 to 100%,26 to 50%,26 to 50%
CC(=O)Nc1nc(OCCNc2ccccc2)ncc1F [Compound 214],,,76 to 100%,76 to 100%,51 to 75%,51 to 75%,,,,,0 to 25%,0 to 25%,0 to 25%,0 to 25%
"CN1CCN(CNc2nc(OCc3ccc(F)cc3)ncc2F)CC1 [Compound 7, [5-Fluoro-2-(4-fluorobenzyloxy)pyrimidin-4-yl]-(4-methylpiperazin-1-ylmethyl)amine]",,,76 to 100%,76 to 100%,51 to 75%,51 to 75%,76 to 100%,76 to 100%,76 to 100%,76 to 100%,,,,
"CCCNC(=O)N(C(=O)NCCC)c1nc(OCc2cccc(OC)c2)ncc1F [Compound 36, 1-[5-Fluoro-2-(3-methoxybenzyloxy)pyrimidin-4-yl](3′-propylcarbamoyl)-3-propyl-urea]",,,51 to 75%,76 to 100%,51 to 75%,51 to 75%,26 to 50%,76 to 100%,51 to 75%,76 to 100%,,,,
CN1CCCC1CCOc1ncc(F)c(N)n1 (centres unmarked) [Compound 384],,,51 to 75%,0 to 25%,0 to 25%,0 to 25%,,,,,51 to 75%,76 to 100%,26 to 50%,76 to 100%
Fc1cnc(OCc2ccccc2)nc1NNc1ccccn1 [Compound 373],,,0 to 25%,26 to 50%,0 to 25%,0 to 25%,,,,,0 to 25%,0 to 25%,26 to 50%,51 to 75%
